Assay results from the NIST ThermoML archive (doi:10.1016/j.fluid.2014.11.020).
± gives the expanded uncertainty stated by the source.

Assay: activity coefficient (dimensionless); of the first substance listed, at infinite dilution; xn = mol fraction of the nth substance listed
Conditions: Liquid, Chromatography, x1 = 0

SMILES | activity coefficient (323.15 K) | activity coefficient (333.15 K) | activity coefficient (343.15 K)
CCC(=O)CC [pentan-3-one] + CCCOC[n+]1ccc(N(C)C)cc1.O=S(=O)([N-]S(=O)(=O)C(F)(F)F)C(F)(F)F | 0.72 ± 0.05 | 0.75 ± 0.05 | 0.76 ± 0.05
CCC(=O)CC [pentan-3-one] + CCCOC[n+]1ccn(C)c1.F[B-](F)(F)F | 3.34 ± 0.23 | 3.36 ± 0.23 | 3.41 ± 0.23
CCC(=O)CC [pentan-3-one] + CCCOC[n+]1ccn(C)c1.N#C[N-]C#N | 2.14 ± 0.15 | 2.19 ± 0.15 | 2.29 ± 0.16
CCC(=O)CC [pentan-3-one] + CCCOC[n+]1ccn(C)c1.O=S(=O)([N-]S(=O)(=O)C(F)(F)F)C(F)(F)F | 0.68 ± 0.05 | 0.69 ± 0.05 | 0.72 ± 0.05
CCC(=O)CC [pentan-3-one] + CCCOC[n+]1ccn(Cc2ccccc2)c1.F[B-](F)(F)F | 1.73 ± 0.12 | 1.74 ± 0.12 | 1.75 ± 0.12
CCC(=O)CC [pentan-3-one] + CCCOC[n+]1ccn(Cc2ccccc2)c1.N#C[N-]C#N | 1.33 ± 0.09 | 1.4 ± 0.09 | 1.43 ± 0.09
CCC(=O)CC [pentan-3-one] + CCCOC[n+]1ccn(Cc2ccccc2)c1.O=S(=O)([N-]S(=O)(=O)C(F)(F)F)C(F)(F)F | 0.43 ± 0.04 | 0.43 ± 0.04 | 0.44 ± 0.04
CCC(=O)CC [pentan-3-one] + CN(C)c1cc[n+](COCCCOC[n+]2ccc(N(C)C)cc2)cc1.O=S(=O)([N-]S(=O)(=O)C(F)(F)F)C(F)(F)F.O=S(=O)([N-]S(=O)(=O)C(F)(F)F)C(F)(F)F | 0.67 ± 0.05 | 0.69 ± 0.05 | 0.7 ± 0.05
CCC(=O)CC [pentan-3-one] + Cn1cc[n+](COCCCOC[n+]2ccn(C)c2)c1.N#C[N-]C#N.N#C[N-]C#N | 3.39 ± 0.23 | 3.49 ± 0.24 | 3.46 ± 0.24
CCC(=O)CC [pentan-3-one] + Cn1cc[n+](COCCCOC[n+]2ccn(C)c2)c1.O=S(=O)([N-]S(=O)(=O)C(F)(F)F)C(F)(F)F.O=S(=O)([N-]S(=O)(=O)C(F)(F)F)C(F)(F)F | 0.6 ± 0.04 | 0.63 ± 0.04 | 0.63 ± 0.04
CCC(=O)CC [pentan-3-one] + N#C[N-]C#N.N#C[N-]C#N.c1ccc(Cn2cc[n+](COCCCOC[n+]3ccn(Cc4ccccc4)c3)c2)cc1 | 2.88 ± 0.2 | 2.89 ± 0.2 | 2.91 ± 0.2
CCCO [propan-1-ol] + CCCCCCCCn1cc[n+](COCCC)c1C.N#C[N-]C#N | 0.4 ± 0.03 | 0.4 ± 0.03 | 0.39 ± 0.03
CCCO [propan-1-ol] + CCCCCCCCn1cc[n+](COCCC)c1C.O=S(=O)([N-]S(=O)(=O)C(F)(F)F)C(F)(F)F | 1.16 ± 0.07 | 1.06 ± 0.07 | 0.98 ± 0.06
CCCO [propan-1-ol] + CCCCCCCCn1cc[n+](COCCCOC[n+]2ccn(CCCCCCCC)c2C)c1C.N#C[N-]C#N.N#C[N-]C#N | 0.32 ± 0.03 | 0.32 ± 0.03 | 0.31 ± 0.03
CCCO [propan-1-ol] + CCCCCCCCn1cc[n+](COCCCOC[n+]2ccn(CCCCCCCC)c2C)c1C.O=S(=O)([N-]S(=O)(=O)C(F)(F)F)C(F)(F)F.O=S(=O)([N-]S(=O)(=O)C(F)(F)F)C(F)(F)F | 0.72 ± 0.05 | 0.65 ± 0.04 | 0.77 ± 0.05
CCCO [propan-1-ol] + CCCOC[n+]1ccc(N(C)C)cc1.O=S(=O)([N-]S(=O)(=O)C(F)(F)F)C(F)(F)F | 1.93 ± 0.13 | 1.72 ± 0.12 | 1.53 ± 0.1
CCCO [propan-1-ol] + CCCOC[n+]1ccn(C)c1.F[B-](F)(F)F | 3.1 ± 0.21 | 2.79 ± 0.19 | 2.53 ± 0.17
CCCO [propan-1-ol] + CCCOC[n+]1ccn(C)c1.N#C[N-]C#N | 0.97 ± 0.06 | 0.95 ± 0.06 | 0.92 ± 0.06
CCCO [propan-1-ol] + CCCOC[n+]1ccn(C)c1.O=S(=O)([N-]S(=O)(=O)C(F)(F)F)C(F)(F)F | 1.86 ± 0.13 | 1.66 ± 0.11 | 1.5 ± 0.1
CCCO [propan-1-ol] + CCCOC[n+]1ccn(Cc2ccccc2)c1.F[B-](F)(F)F | 2.15 ± 0.15 | 1.92 ± 0.13 | 1.78 ± 0.12
CCCO [propan-1-ol] + CCCOC[n+]1ccn(Cc2ccccc2)c1.N#C[N-]C#N | 0.84 ± 0.05 | 0.7 ± 0.05 | 0.69 ± 0.05
CCCO [propan-1-ol] + CN(C)c1cc[n+](COCCCOC[n+]2ccc(N(C)C)cc2)cc1.O=S(=O)([N-]S(=O)(=O)C(F)(F)F)C(F)(F)F.O=S(=O)([N-]S(=O)(=O)C(F)(F)F)C(F)(F)F | 1.51 ± 0.1 | 1.37 ± 0.09 | 1.22 ± 0.08
CCCO [propan-1-ol] + Cn1cc[n+](COCCCOC[n+]2ccn(C)c2)c1.N#C[N-]C#N.N#C[N-]C#N | 1.22 ± 0.08 | 1.17 ± 0.07 | 1.1 ± 0.07

SMILES | activity coefficient (323.15 K) | activity coefficient (333.15 K) | activity coefficient (343.15 K)
CCCO [propan-1-ol] + Cn1cc[n+](COCCCOC[n+]2ccn(C)c2)c1.O=S(=O)([N-]S(=O)(=O)C(F)(F)F)C(F)(F)F.O=S(=O)([N-]S(=O)(=O)C(F)(F)F)C(F)(F)F | 1.43 ± 0.09 | 1.32 ± 0.09 | 1.19 ± 0.08
CCCO [propan-1-ol] + N#C[N-]C#N.N#C[N-]C#N.c1ccc(Cn2cc[n+](COCCCOC[n+]3ccn(Cc4ccccc4)c3)c2)cc1 | 1.24 ± 0.08 | 1.2 ± 0.08 | 1.14 ± 0.07
CC(C)O [propan-2-ol] + CCCCCCCCn1cc[n+](COCCC)c1C.O=S(=O)([N-]S(=O)(=O)C(F)(F)F)C(F)(F)F | 1.16 ± 0.07 | 1.05 ± 0.07 | 0.99 ± 0.06
CC(C)O [propan-2-ol] + CCCCCCCCn1cc[n+](COCCCOC[n+]2ccn(CCCCCCCC)c2C)c1C.N#C[N-]C#N.N#C[N-]C#N | 0.4 ± 0.03 | 0.38 ± 0.03 | 0.38 ± 0.03
CC(C)O [propan-2-ol] + CCCCCCCCn1cc[n+](COCCCOC[n+]2ccn(CCCCCCCC)c2C)c1C.O=S(=O)([N-]S(=O)(=O)C(F)(F)F)C(F)(F)F.O=S(=O)([N-]S(=O)(=O)C(F)(F)F)C(F)(F)F | 0.68 ± 0.05 | 0.61 ± 0.04 | 0.56 ± 0.04
CC(C)O [propan-2-ol] + CCCOC[n+]1ccc(N(C)C)cc1.O=S(=O)([N-]S(=O)(=O)C(F)(F)F)C(F)(F)F | 1.7 ± 0.11 | 1.62 ± 0.11 | 1.45 ± 0.1
CC(C)O [propan-2-ol] + CCCOC[n+]1ccn(C)c1.F[B-](F)(F)F | 2.91 ± 0.2 | 2.7 ± 0.18 | 2.6 ± 0.18
CC(C)O [propan-2-ol] + CCCOC[n+]1ccn(C)c1.N#C[N-]C#N | 1.1 ± 0.07 | 1.07 ± 0.07 | 1.04 ± 0.07
CC(C)O [propan-2-ol] + CCCOC[n+]1ccn(C)c1.O=S(=O)([N-]S(=O)(=O)C(F)(F)F)C(F)(F)F | 1.9 ± 0.13 | 1.51 ± 0.1 | 1.39 ± 0.09
CC(C)O [propan-2-ol] + CCCOC[n+]1ccn(Cc2ccccc2)c1.F[B-](F)(F)F | 2.19 ± 0.15 | 1.96 ± 0.13 | 1.81 ± 0.12
CC(C)O [propan-2-ol] + CCCOC[n+]1ccn(Cc2ccccc2)c1.N#C[N-]C#N | 0.85 ± 0.05 | 0.84 ± 0.05 | 0.82 ± 0.05
CC(C)O [propan-2-ol] + CN(C)c1cc[n+](COCCCOC[n+]2ccc(N(C)C)cc2)cc1.O=S(=O)([N-]S(=O)(=O)C(F)(F)F)C(F)(F)F.O=S(=O)([N-]S(=O)(=O)C(F)(F)F)C(F)(F)F | 1.42 ± 0.09 | 1.3 ± 0.08 | 1.18 ± 0.08
CC(C)O [propan-2-ol] + Cn1cc[n+](COCCCOC[n+]2ccn(C)c2)c1.N#C[N-]C#N.N#C[N-]C#N | 1.39 ± 0.09 | 1.32 ± 0.09 | 1.26 ± 0.08
CC(C)O [propan-2-ol] + Cn1cc[n+](COCCCOC[n+]2ccn(C)c2)c1.O=S(=O)([N-]S(=O)(=O)C(F)(F)F)C(F)(F)F.O=S(=O)([N-]S(=O)(=O)C(F)(F)F)C(F)(F)F | 1.31 ± 0.09 | 1.22 ± 0.08 | 1.05 ± 0.07
CC(C)O [propan-2-ol] + N#C[N-]C#N.N#C[N-]C#N.c1ccc(Cn2cc[n+](COCCCOC[n+]3ccn(Cc4ccccc4)c3)c2)cc1 | 1.57 ± 0.1 | 1.45 ± 0.1 | 1.39 ± 0.09
c1ccncc1 [pyridine] + CCCCCCCCn1cc[n+](COCCC)c1C.N#C[N-]C#N | 0.66 ± 0.05 | 0.59 ± 0.04 | 0.54 ± 0.04
c1ccncc1 [pyridine] + CCCCCCCCn1cc[n+](COCCC)c1C.O=S(=O)([N-]S(=O)(=O)C(F)(F)F)C(F)(F)F | 0.35 ± 0.03 | 0.34 ± 0.03 | 0.3 ± 0.03
c1ccncc1 [pyridine] + CCCCCCCCn1cc[n+](COCCCOC[n+]2ccn(CCCCCCCC)c2C)c1C.N#C[N-]C#N.N#C[N-]C#N | 0.4 ± 0.03 | 0.38 ± 0.03 | 0.38 ± 0.03
c1ccncc1 [pyridine] + CCCCCCCCn1cc[n+](COCCCOC[n+]2ccn(CCCCCCCC)c2C)c1C.O=S(=O)([N-]S(=O)(=O)C(F)(F)F)C(F)(F)F.O=S(=O)([N-]S(=O)(=O)C(F)(F)F)C(F)(F)F | 0.13 ± 0.03 | 0.14 ± 0.03 | 0.15 ± 0.03
c1ccncc1 [pyridine] + CCCOC[n+]1ccc(N(C)C)cc1.O=S(=O)([N-]S(=O)(=O)C(F)(F)F)C(F)(F)F | 0.43 ± 0.04 | 0.45 ± 0.04 | 0.46 ± 0.04
c1ccncc1 [pyridine] + CCCOC[n+]1ccn(C)c1.N#C[N-]C#N | 0.91 ± 0.06 | 0.93 ± 0.06 | 0.97 ± 0.06
c1ccncc1 [pyridine] + CCCOC[n+]1ccn(Cc2ccccc2)c1.F[B-](F)(F)F | 0.6 ± 0.04 | 0.61 ± 0.04 | 0.65 ± 0.04
